Assay results from patent US8778927B2, “Smoothened antagonism for the treatment of hedgehog pathway-related disorders” (Novartis AG, priority 2008, dated 2014).
pIC50: −log10 of the molar value.

Assays:
[1] = tested on: sensitive medulloblastoma tumor cells; assay: ex-vivo medulloblastoma proliferation assay (3H thymidine, 48 h), sensitive tumor cells; type: cell-based; conditions: Mus musculus
Protocol: (§1) The effect of statins (e.g., simvastatin, flustatin) on the proliferation of medulloblastoma cells derived from sensitive and resistant Ptch+/− cells was evaluated by using an “ex-vivo medulloblastoma proliferation assay.” Using Ptch+/−p53−/−, Ptch+/−Hic+/− or Ptch+/− medulloblastoma tumors freshly harvested from allografted nude mice, we have developed a short-term 48 h proliferation assay that enables us to assess the in vitro potency of Smo inhibitors. The read-out for proliferation uses incorporation of 3H thymidine. The assay reflects the in vivo sensitivity of tumor cells to Compound 1.
(§2) The effect of PI3K inhibitors (e.g., compounds such as Compound A) on the proliferation of medulloblastoma cells derived from sensitive and resistant medulloblastoma cells was evaluated by using an “ex-vivo medulloblastoma proliferation assay,” as described above.

[2] = tested on: Cholesterol biosynthesis pathway genes; assay: Affymetrix mRNA profiling of tumors, cholesterol biosynthesis genes; type: in vivo, mouse; conditions: sensitive and resistant tumors
Protocol: (§3) In order to characterize changes in gene expression in sensitive tumors compared to resistant tumors (both of which terms are defined herein), RNA was isolated from sensitive tumors treated with vehicle or Compound 1 for 4 (single dose), 16 (single dose) and 48 hours (three doses) as well as from resistant tumors (that initially had regressed in the presence of Compound 1 (day 13) but then regrew in the presence of drug as described above). Three tumors were analyzed per treatment group: The sensitive tumor group comprises tumors treated with 20 mg/kg of Compound 1 for 4 hours; 16 hours; and 48 hours. The resistant tumor group comprises tumors treated with 10 mg/kg bid and 80 mg/kg bid of Compound 1 for 26 days. mRNA expression in tumor samples was analyzed by Affymetrix profiling. The expression data were analyzed using the GeneGo pathway program, which groups data according to signal transduction pathways.

[3] = tested on: Hedgehog signaling pathway genes; assay: Affymetrix mRNA profiling of tumors, Hedgehog pathway genes; type: in vivo, mouse
Protocol: as §3

[4] = tested on: Ptch+/− medulloblastoma allograft; assay: Ptch+/− medulloblastoma allograft model, continuous dosing; type: in vivo, mouse; conditions: day 48
Description: (§4) Mouse medulloblastoma cells (1.0−5.0×10^6), dissociated directly from tumor fragments originally derived from spontaneously arising medulloblastomas in Ptch+/−p53−/−, Ptch+/−Hic+/− or Ptch+/− mice, were inoculated subcutaneously into the right flank of Harlan nu/nu mice. Treatment was initiated approximately 7-10 days post implantation. Animals were randomized into treatment groups with similar mean tumor volumes that ranged from approximately 250-300 mm3. Tumor volumes (mm3) and body weights (g) were recorded two or three times per week from all groups for analysis. Dose was body weight adjusted at time of dosing. Comparisons between treatment groups was performed using a non-parametric Kruskal-Wallis/Wilcoxon Rank Sum Test.
(§5) Tumors were calipered in two dimensions, and the volumes were calculated using the formula: (length×width2)/2, where length is the longer of the two measurements and width is the shorter one. Percent treatment/control (% T/C) values were calculated using the following formula: % T/C=100×ΔTf−i/ΔCf−i if ΔTf−i>0, % T/T0=100×ΔTf−i/T0 if ΔTf−i<0 (regression). A partial responder (PR) was defined as an animal whose tumor was less than 50% of the initial tumor volume by the end of the study. An animal with no palpable tumor by the end of study is defined as a complete responder (CR).
Treatments started on day 7 post implantation (5 million cells/animal). Compound 1 was administered po at 10 mg/kg qd, 20 mg/kg qd, 40 mg/kg qd, 80 mg/kg qd and 160 mg/kg qd for the length of study. Compound 2 was administered at 100 mg/kg bid for the length of study. Vehicle control of Compound 1 was 0.5% methylcellulose 0.5% Tween 80 in water. The initial group size consisted of 8 animals. The vehicle group was taken down 7 days after treatment (tumors greater than 10% of mouse body weight). Similar resistance was seen to that observed with the Ptc+/−Hic+/− model, with a subset of the complete responders growing back and others showing complete regression (Table 2). Sustained regression listed in Table 2 represent number of complete regressions still present at the end of study on day 48.

PI3K pathway genes = assay: Affymetrix mRNA profiling of tumors, PI3K pathway genes; type: in vivo, mouse
Protocol: as §3

[5] = tested on: resistant medulloblastoma tumor cells; assay: ex-vivo medulloblastoma proliferation assay (3H thymidine, 48 h), resistant tumor cells; type: cell-based, mouse; conditions: Mus musculus
Protocol: as §1, §2

[6] = tested on: Ptch+/−Hic+/− medulloblastoma allograft; assay: Ptch+/−Hic+/− medulloblastoma allograft model, continuous dosing; type: in vivo, mouse; conditions: day 47
Description: as §4, §5
Treatments started on day 7 post implantation (5 million cells/animal). Compound 1 was administered po at 5 mg/kg bid, 10 mg/kg bid, 20 mg/kg qd, 20 mg/kg bid, 40 mg/kg bid and 80 mg/kg bid for the length of study. Compound 2 was administered at 100 mg/kg bid for the length of study. Vehicle control of Compound 1 was 0.5% methylcellulose 0.5% Tween 80 in water. The initial group size consisted of 8 animals. The vehicle group was taken down 10 days after treatment (tumors greater than 10% of mouse body weight).
Sustained regressions listed in the Table 1 represent number of complete responses still present at the end of study on day 47.
Two additional Smo inhibitors, Compound 3 and Compound 4 were evaluated in follow-up studies in the Ptch+/−Hic+/− model upon continous dosing.

[7] = tested on: Ptch+/−Hic+/− medulloblastoma allograft; assay: combination of Smo inhibitor and PI3K inhibitor in Ptch+/−Hic+/− medulloblastoma allograft model; type: in vivo, mouse
Description: Mouse medulloblastoma cells (1.0-5.0×10^6), dissociated directly from tumor fragments originally derived from spontaneously arising medulloblastomas in Ptch+/-p53-/-, Ptch+/-Hic+/- or Ptch+/- mice, were inoculated subcutaneously into the right flank of Harlan nu/nu mice. Treatment was initiated approximately 7-10 days post implantation. Animals were randomized into treatment groups with similar mean tumor volumes that ranged from approximately 250-300 mm3. Tumor volumes (mm3) and body weights (g) were recorded two or three times per week from all groups for analysis. Dose was body weight adjusted at time of dosing. Comparisons between treatment groups was performed using a non-parametric Kruskal-Wallis/Wilcoxon Rank Sum Test. Tumors were calipered in two dimensions, and the volumes were calculated using the formula: (length×width2)/2, where length is the longer of the two measurements and width is the shorter one. […] A partial responder (PR) was defined as an animal whose tumor was less than 50% of the initial tumor volume by the end of the study. An animal with no palpable tumor by the end of study is defined as a complete responder (CR). Next, a combination of Compound 1 and Compound A was explored in the Ptch+/-Hic+/- medulloblastoma allograft model. […] Animals treated with vehicle control and with compound A had to be sacrificed around day 20 and 25, respectively, because their tumor volume reached 1500 mm3. […] Similar results were obtained for animals treated with Compound 1 alone for the first 10 days, followed by single agent treatment with Compound A (data not shown). […] Next, a combination of Compound 1 and Compound B was explored in the Ptch+/-Hic+/- medulloblastoma allograft model. […] Animals treated with vehicle control and with compound B reached the endpoint around day 12 to 15, respectively, because their tumor volume reached 700 mm3.

pIC50 ([1]; Sensitive tumor, Table 3): 8.52 | pIC50 ([1]; ptch+/− Hic+/−, sensitive, Table 4): 8.70 | pIC50 ([1]; sensitive cells, summary of Table 4): 8.40 to 8.70 | pIC50 ([1]; sensitive tumor cells, text b482): 8.40 | pIC50 ([5]; Resistant tumor, Table 3): < 4.70 | pIC50 ([5]; ptch+/− Hic+/−, Resistant, Table 4): < 4.70 | pIC50 ([5]; resistant tumors, summary of Table 4): < 4.70 | pIC50 ([5]; resistant tumors, text b482): < 4.70
Compound: Cc1c(C(=O)Nc2ccc(N3C[C@@H](C)O[C@@H](C)C3)nc2)cccc1-c1ccc(OC(F)(F)F)cc1 [Compound 1, 2-Methyl-4′-trifluoromethoxy-biphenyl-3-carboxylic acid [6-(cis-2,6-dimethyl-morpholin-4-yl)-pyridin-3-yl]-amide]
expression of genes of the Cholesterol biosynthesis pathway [2]: A similar expression pattern was observed | expression of Hedgehog pathway genes ([3]; resistant tumors, 10 and 80 mg/kg bid, 26 days): no longer sufficiently inhibited the expression of Hedgehog pathway genes | expression of genes indicative of Hedgehog signaling pathway activity ([3]; sensitive tumors, 20 mg/kg, 4 h, 16 h, 48 h): suppressed in sensitive tumors in a time-dependent manner | sustained regressions (complete regressions still present at end of study) ([4]; 10 mg/kg qd po): 0/8 | sustained regressions (complete regressions still present at end of study) ([4]; 20 mg/kg qd po): 1/8 | sustained regressions (complete regressions still present at end of study) ([4]; 40 mg/kg qd po): 1/8 | sustained regressions (complete regressions still present at end of study) ([4]; 80 mg/kg qd po): 4/8 | sustained regressions (complete regressions still present at end of study) ([4]; 160 mg/kg qd po): 5/8 | PI3K pathway activity (gene expression) (PI3K pathway genes; resistant tumors compared to sensitive tumors): upregulation of PI3K pathway activity was observed in resistant tumors | expression of genes indicative of PI3K pathway activity (PI3K pathway genes; sensitive tumors, 4, 16 and 48 h): No changes in gene expression were detected | sustained regressions (complete responses still present at end of study) ([6]; 5 mg/kg bid po): 0/8 | sustained regressions (complete responses still present at end of study) ([6]; 10 mg/kg bid po): 1/8 | sustained regressions (complete responses still present at end of study) ([6]; 20 mg/kg bid po): 7/8 | sustained regressions (complete responses still present at end of study) ([6]; 20 mg/kg qd po): 0/8 | sustained regressions (complete responses still present at end of study) ([6]; 40 mg/kg bid po): 3/8 | sustained regressions (complete responses still present at end of study) ([6]; 80 mg/kg bid po): 6/8 | effect on tumor growth ([7]; 40 mg/kg qd, FIG. 6A): initially induced regression but tumors started to regrow | time to endpoint (tumor volume >1500 mm3) ([7]; 40 mg/kg qd, FIG. 6B): significantly prolonged | effect on tumor growth ([7]; 80 mg/kg qd, FIG. 7A): initially induced regression but tumors started to regrow | time to endpoint (tumor volume >700 mm3) ([7]; 80 mg/kg qd, FIG. 7B): significantly prolonged
